From patent US8153809B2, “Dihydropyridone ureas as P2X7 modulators” (Roche Palo Alto LLC, priority 2008, dated 2012)

molecular target: T1, P2X7 (UniProt Q99572); test: pIC50 values for P2X7 (Table 1); assay type: cell-based
T1 sequence (Q99572 1-595): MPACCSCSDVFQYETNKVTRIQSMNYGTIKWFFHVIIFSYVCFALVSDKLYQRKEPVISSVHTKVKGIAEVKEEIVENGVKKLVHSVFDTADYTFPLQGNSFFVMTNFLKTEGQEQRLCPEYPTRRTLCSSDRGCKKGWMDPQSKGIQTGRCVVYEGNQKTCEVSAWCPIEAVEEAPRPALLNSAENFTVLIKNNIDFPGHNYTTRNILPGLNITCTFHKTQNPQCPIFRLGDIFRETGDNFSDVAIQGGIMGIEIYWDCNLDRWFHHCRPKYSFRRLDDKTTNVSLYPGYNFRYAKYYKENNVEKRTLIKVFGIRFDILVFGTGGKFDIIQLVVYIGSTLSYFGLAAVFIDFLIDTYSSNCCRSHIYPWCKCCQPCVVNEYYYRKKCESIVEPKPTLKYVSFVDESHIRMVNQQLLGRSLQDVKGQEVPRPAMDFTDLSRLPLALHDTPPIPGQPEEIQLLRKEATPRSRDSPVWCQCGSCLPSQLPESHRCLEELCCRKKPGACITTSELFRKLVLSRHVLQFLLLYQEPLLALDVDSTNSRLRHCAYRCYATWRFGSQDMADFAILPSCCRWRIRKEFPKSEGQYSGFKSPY
In short: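 Fluo-3-loaded 1321N1 cells expressing human P2X7 or HEK293 cells expressing rat P2X7, preincubated 20 min at room temperature with antagonist in HBSS/Hepes/probenecid buffer with 2 mM CaCl2. BzATP agonist at 100 μM final (human) or 5 μM final (rat); fluorescence read 5 min, peak normalized to 5 μM ionomycin response.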

SMILES | pIC50
Cc1cc2ccn(CCO)c2cc1NC(=O)N1C=CC(=O)C[C@H]1c1ccc(F)cc1 [Compound 156, (S)-2-(4-Fluoro-phenyl)-4-oxo-3,4-dihydro-2H-pyridine-1-carboxylic acid [1-(2-hydroxy-ethyl)-5-methyl-1H-indol-6-yl]-amide] | 8.155
O=C1C=CN(C(=O)Nc2cc(F)c(F)cc2Br)C(c2ccc(F)cc2)C1 (stereo not drawn) [Compound 157, 2-(4-Fluoro-phenyl)-4-oxo-3,4-dihydro-2H-pyridine-1-carboxylic acid (2-bromo-4,5-difluoro-phenyl)-amide] | 6.43
Cc1ccc(NC(=O)N2C=CC(=O)C[C@H]2c2ccc(F)cc2)cc1C [Compound 158, (S)-2-(4-Fluoro-phenyl)-4-oxo-3,4-dihydro-2H-pyridine-1-carboxylic acid (3,4-dimethyl-phenyl)-amide] | 7.01
